Assay [1] deals with T1, Aldehyde dehydrogenase, mitochondrial (Homo sapiens, UniProt P05091).
T1 sequence (P05091 whole entry): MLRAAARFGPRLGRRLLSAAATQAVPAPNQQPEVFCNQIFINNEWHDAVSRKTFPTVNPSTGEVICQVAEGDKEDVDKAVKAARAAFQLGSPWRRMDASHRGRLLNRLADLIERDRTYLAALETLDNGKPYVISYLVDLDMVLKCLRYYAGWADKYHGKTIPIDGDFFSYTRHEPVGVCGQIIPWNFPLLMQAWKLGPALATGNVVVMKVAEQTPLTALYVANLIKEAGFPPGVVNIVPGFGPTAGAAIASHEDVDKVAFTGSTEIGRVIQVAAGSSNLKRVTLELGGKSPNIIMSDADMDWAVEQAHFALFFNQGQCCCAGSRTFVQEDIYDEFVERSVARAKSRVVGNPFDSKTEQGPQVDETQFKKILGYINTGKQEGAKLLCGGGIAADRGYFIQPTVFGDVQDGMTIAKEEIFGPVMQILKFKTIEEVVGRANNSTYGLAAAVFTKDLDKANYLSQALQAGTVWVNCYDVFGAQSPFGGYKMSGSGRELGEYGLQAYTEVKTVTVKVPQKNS
Put plainly: ALDH2 Assay. Here is the method:
Standard ALDH2 reaction mixtures contained 150 uM formaldehyde, 2.5 mM NAD+, 10 mM MgCl2 and 10 nM recombinant human ALDH2 in 50 mM Hepes buffer, pH 7.4, 0.01% Tween 20 in a final volume of 50 ul using 384-well plates. After 60 min of pre-incubation of compound with ALDH2 and formaldehyde, the reaction was started by adding NAD+ and the reaction mixture was allowed to proceed for 90 minutes. Activity of the enzyme was determined by monitoring NADH formation using Perkin-Elmer Envision Reader with excitation and emission wavelengths set at 340 and 460 nm, respectively.

Assay [2] addresses T2, Amine oxidase [flavin-containing] B (Homo sapiens, UniProt P27338).
T2 sequence (P27338 whole entry): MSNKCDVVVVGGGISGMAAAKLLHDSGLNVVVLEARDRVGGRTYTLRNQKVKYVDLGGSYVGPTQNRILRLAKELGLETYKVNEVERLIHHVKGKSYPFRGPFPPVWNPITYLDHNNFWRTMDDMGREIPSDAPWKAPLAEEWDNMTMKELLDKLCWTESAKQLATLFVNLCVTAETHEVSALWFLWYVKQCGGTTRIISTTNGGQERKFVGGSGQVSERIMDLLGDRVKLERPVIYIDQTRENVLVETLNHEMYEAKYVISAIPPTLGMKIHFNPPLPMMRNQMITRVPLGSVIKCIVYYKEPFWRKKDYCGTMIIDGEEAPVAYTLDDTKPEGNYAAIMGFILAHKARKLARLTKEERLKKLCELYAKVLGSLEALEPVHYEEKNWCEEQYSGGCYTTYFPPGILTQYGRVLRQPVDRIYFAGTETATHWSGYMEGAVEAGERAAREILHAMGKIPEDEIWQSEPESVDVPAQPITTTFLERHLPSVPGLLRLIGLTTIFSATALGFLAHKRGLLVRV
Put plainly: MAO-A and MAO-B Assay. How it is done:
(§1) MAO assays included luminogenic MAO substrate, reaction buffers, Luciferin Detection and the reconstitution buffer with esterase. Standard MAO reaction mixtures included microsome contained MAO-A (2 ug) or MAO-B (10 ug), 160 uM substrate for MAO-A or 16 uM substrate for MAO-B, MAO-A buffer (100 mM Hepes buffer, pH 7.5, 5% glycerol) or MAO-B buffer (100 mM Hepes, pH 7.5, 5% glycerol, 10% dimethyl sulfoxide) in a final volume of 30 ul. After 20 minutes of pre-incubation of the enzyme with compounds, the reaction was initiated by adding enzyme substrate and the reaction was allowed to proceed for 60 minutes. Reconstituted Luciferin Detection Reagent (30 ul) was then added is added to simultaneously stop the MAO reaction and convert the methyl ester derivative to luciferin and produce light. The amount of light produced is directly proportional to the activity of MAO. The mixtures were further incubated for 20 minutes and activity of the enzyme was determined using Perkin-Elmer Envision Reader.

The target in assay [3] is T3, Amine oxidase [flavin-containing] A (Homo sapiens, UniProt P21397).
T3 sequence (P21397 whole entry): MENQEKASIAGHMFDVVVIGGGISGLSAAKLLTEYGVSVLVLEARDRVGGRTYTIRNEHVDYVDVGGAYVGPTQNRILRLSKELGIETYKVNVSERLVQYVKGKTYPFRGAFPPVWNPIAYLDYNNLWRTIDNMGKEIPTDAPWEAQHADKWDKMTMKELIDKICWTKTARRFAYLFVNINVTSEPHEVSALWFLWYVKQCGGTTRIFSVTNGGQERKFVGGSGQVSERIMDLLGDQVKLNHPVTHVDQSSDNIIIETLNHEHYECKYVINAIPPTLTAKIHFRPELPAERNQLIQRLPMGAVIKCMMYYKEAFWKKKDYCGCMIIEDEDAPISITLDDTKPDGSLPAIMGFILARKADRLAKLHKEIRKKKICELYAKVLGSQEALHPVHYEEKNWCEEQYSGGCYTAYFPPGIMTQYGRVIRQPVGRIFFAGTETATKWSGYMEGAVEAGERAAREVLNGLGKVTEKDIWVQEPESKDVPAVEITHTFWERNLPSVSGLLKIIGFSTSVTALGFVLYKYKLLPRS
The experiment in a line: MAO-A and MAO-B Assay. How it is done: as §1

The term IC50 denotes the concentration at which inhibition is half-maximal. A lower IC50 goes with greater potency.

Each structure is given as a SMILES string.

For `Cc1cccc(C)c1C(=O)NCc1ccc(C2CCNC(=O)C2)cc1` (stereo not drawn) [US9610299, Example 6], the IC50 was 1.11 µM in assay [1], > 130 µM in assay [2] and > 130 µM in assay [3].

(Values after BindingDB's records for patent US9610299 (Gilead Sciences, 2017).)
